Experimental findings from ChEMBL document CHEMBL1201862, “PubChem BioAssay data set” (2004) are described below.

Molecules are shown by their SMILES.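 Grown in 96-well plates, cells were treated for 48 hours with each compound at five concentrations. Insufficient inhibition: endpoint recorded as highest concentration tested. GI50: concentration for 50% inhibition of growth.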 The source made the active and inactive calls. Cut-off read from the data, not from the text of the source: active = GI50 up to about 1.1 µM and inactive = higher. A value given as a limit tells only on which side of the number the result lay.

Common to all, as to test: NCI-60 cell line screen, 48 h
For assay [1], the system named is A498.
For assay [2], the system named is A549.
Assay [3] concerns BT-549.
In assay [4] the test system is CAKI-1.
The subject of assay [5] is COLO 205.
Assay [6] relates to DLD-1.
For assay [7], the system named is DU-145.
Assay [8] has as its system HCT-116.
In assay [9] the test system is HOP-92.
The subject of assay [10] is HT-29.
The subject of assay [11] is Hs-578T.
Assay [12] has as its system OVCAR-5.
Assay [13] relates to PC-3.
For assay [14], the system named is RPMI-8226.
The test system of assay [15] is SF-268.
Assay [16] has as its system SF-295.
The test system of assay [17] is SN12C.
For assay [18], the system named is SW-620.
Assay [19] has as its system TK-10.
Assay [20] concerns UO-31.

Regarding `CCOC(=O)N[C@H]1CCc2cc(OC)c(OC)c(OC)c2-c2ccc(SC)c(=O)cc21`, the GI50 in assay [1], in [2], in assay [3], in assay [4], in assay [5] and in assay [6] was < 0.01 µM (active) in each case. For the same compound, the GI50 is < 0.01 µM (active) in [7]; < 0.01 µM (active) in assay [8]; < 0.01 µM (active) in [9]; < 0.01 µM (active) in assay [10]; < 0.01 µM (active) in assay [11]; 0.317 µM (active) in assay [12]. Moreover, the GI50 in assay [13] was < 0.01 µM (active); in [14], < 0.01 µM (active); in assay [15], < 0.01 µM (active); in assay [16], < 0.01 µM (active); in assay [17] it was < 0.0287 µM (active); in assay [18] it was < 0.01 µM (active). The GI50 was 1 µM (active) in [19] and < 0.0117 µM (active) in [20].

Consider `COc1nc(NC2OC(COC(C)=O)C(OC(C)=O)C(OC(C)=O)C2OC(C)=O)c(/N=C/C=N/c2c(NC3OC(COC(C)=O)C(OC(C)=O)C(OC(C)=O)C3OC(C)=O)nc(OC)n(C)c2=O)c(=O)n1C` (stereo not given), for which the GI50 in [1], in [2], in assay [3], in assay [4], in assay [5] and in [6] was > 100 µM (inactive) each time. The GI50 was > 100 µM (inactive) in assay [7]; > 100 µM (inactive) in assay [8]; 39 µM (inactive) in [9]; > 100 µM (inactive) in assay [10]; 28.3 µM (inactive) in assay [11]; > 100 µM (inactive) in assay [12]. The GI50 was > 100 µM (inactive) in assay [13]; > 100 µM (inactive) in assay [14]; > 70.3 µM (inactive) in [15]; 49.2 µM (inactive) in [16]; > 100 µM (inactive) in assay [17]; > 100 µM (inactive) in [18]. The GI50 in assay [19] is 56.4 µM (inactive); in assay [20], > 100 µM (inactive).

Take `NC(CS)C(=O)NCCNc1ccc(NCCNC(=O)C(N)CS)c2c1C(=O)c1c(O)ccc(O)c1C2=O` (stereo not given): the GI50 in assay [1] is 0.0771 µM (active); in [2], 0.00251 µM (active); in assay [3], 0.327 µM (active); in assay [4] it was 0.0243 µM (active); in assay [5] it was 0.422 µM (active); in assay [6] it was 0.121 µM (active). Also, the GI50 is 0.0261 µM (active) in assay [7]; 0.0391 µM (active) in assay [8]; 0.00638 µM (active) in [9]; 0.0897 µM (active) in [10]; 0.137 µM (active) in assay [11]; 0.481 µM (active) in assay [12]. Besides, the GI50 in [13] was 0.126 µM (active); in assay [14] it was 0.0417 µM (active); in assay [15], 0.0246 µM (active); in assay [16], 0.00782 µM (active); in [17] it was 0.00836 µM (active); in assay [18] it was 0.0292 µM (active). Moreover, the results for the GI50 in assay [19] and in [20] were 0.667 µM (active) and 0.0313 µM (active), respectively.

For the compound `O=P1(NCCCl)OCCCN1CCCl` (stereo not given) [IFOSFAMIDE], the GI50 was 428 µM (inactive) in [1]; 401 µM (inactive) in assay [2]; > 500 µM (inactive) in [3]; 287 µM (inactive) in assay [4]; 394 µM (inactive) in assay [5]; 380 µM (inactive) in [6]. Moreover, the GI50 in [7] is > 500 µM (inactive); in assay [8], 401 µM (inactive); in assay [9], 333 µM (inactive); in assay [10], 406 µM (inactive); in assay [11], > 500 µM (inactive); in assay [12], 407 µM (inactive). The GI50 in assay [13] is > 500 µM (inactive); in assay [14] it was 332 µM (inactive); in assay [15] it was 351 µM (inactive); in [16], 374 µM (inactive); in assay [17], 388 µM (inactive); in [18], 340 µM (inactive). Also, the GI50 in assay [19] is > 471 µM (inactive); in assay [20], 386 µM (inactive).
